Source: PubChem BioAssay AID1259407 (Chemical Carcinogenesis Research Information System (CCRIS), 2018)
Activity calls are given as the source filed them. No rule for the calls is given here.

System: CCRIS mutagenicity, Ames/micronucleus/aberration tests
Test: CCRIS mutagenicity studies
Details: Test System: AMES SALMONELLA TYPHIMURIUM, Method: PREINCUBATION

Measured: mutagenic call

C=C(C)/C([O-])=N/[N+](C)(C)CC(C)O (configuration not stated)
inactive: Strain/Indicator: TA97, Metabolic Activation: HAMSTER, LIVER, S-9, AROCLOR 1254 (10 OR 30%) inactive; negative | Strain/Indicator: TA97, Metabolic Activation: NONE inactive; negative | Strain/Indicator: TA97, Metabolic Activation: RAT, LIVER, S-9, AROCLOR 1254 (10 OR 30%) inactive; negative | Strain/Indicator: TA98, Metabolic Activation: HAMSTER, LIVER, S-9, AROCLOR 1254 (10 OR 30%) inactive; negative | Strain/Indicator: TA98, Metabolic Activation: NONE inactive; negative | Strain/Indicator: TA98, Metabolic Activation: RAT, LIVER, S-9, AROCLOR 1254 (10 OR 30%) inactive; negative | Strain/Indicator: TA100, Metabolic Activation: HAMSTER, LIVER, S-9, AROCLOR 1254 (10 OR 30%) inactive; negative | Strain/Indicator: TA100, Metabolic Activation: NONE inactive; negative | Strain/Indicator: TA100, Metabolic Activation: RAT, LIVER, S-9, AROCLOR 1254 (10 OR 30%) inactive; negative | Strain/Indicator: TA1535, Metabolic Activation: HAMSTER, LIVER, S-9, AROCLOR 1254 (10 OR 30%) inactive; negative | Strain/Indicator: TA1535, Metabolic Activation: NONE inactive; negative | Strain/Indicator: TA1535, Metabolic Activation: RAT, LIVER, S-9, AROCLOR 1254 (10 OR 30%) inactive; negative
